Data taken from publication PMC5867665, “Targeting Multiple Effector Pathways in Pancreatic Ductal Adenocarcinoma with a G-Quadruplex-Binding Small Molecule” (Journal of Medicinal Chemistry, 2018).

Tested on: MIA PaCa-2 pancreatic tumor xenograft
Test: Subcutaneous MIA PaCa-2 pancreatic tumor xenograft therapy study
Assay type: in vivo
Details: for tumor regrowth after dosing stopped: 15 mg/kg, from day 28 onward
Protocol: To determine if the in vitro activity of CM03 was paralleled in vivo, we explored the activity of CM03 in a mouse xenograft model of PDAC. We have previously reported that the maximum tolerated dosage (MTD) for intravenous (IV) administration of MM41 is 25 mg/kg.[33] CM03 was well tolerated, up to a dosage of 45–50 mg/kg, as judged by a dose-escalation MTD study. A therapeutic schedule of two CM03 intravenous (IV) doses was explored using a subcutaneous MIA PaCa-2 pancreatic tumor xenograft model derived from the human cell line used in the cell growth inhibition studies. A group size of eight CD-1 nude mice was used, and dosing was conducted at 10 and 15 mg/kg, each twice weekly, over a period of 4 weeks (28 days: 8 doses). Two further groups were given either MM41 or gemcitabine at 15 mg/kg and received the same dose regimen. […] IVIS imaging of treated mice was performed by taking account of the intrinsic fluorescence of CM03. […] Thus, in contrast to MM41 and gemcitabine, the higher-dose CM03 treatment results in a statistically significant (p < 0.001) antitumor effect, which persisted long after dosing had ceased, up to the termination of the xenograft experiment (62 days).
For therapy studies, female CD-1 nude mice (2–3 months old, weighing 20–25 g) were injected subcutaneously with 5 × 10^6 MIA PaCa-2 cells in the right flank (unsupplemented RPMI + Matrigel). When the tumors were established (approximately 13 days, mean size 0.05 cm^3), the mice were divided into five treatment groups with eight mice/group. The MM41 and CM03 samples were dissolved directly in saline to the required concentrations and administered IV. Tumor size was measured weekly by calliper using the π-based ellipsoid volume formula (length × width × height × π/6) every 3–4 days, and the mice were also weighed and examined at the same time to determine any signs of toxicity from the drug.
• Group 1:15 mg/kg of gemcitabine (Sigma), twice weekly dose. • Group 2:15 mg/kg of MM41, twice weekly dose. • Group 3:10 mg/kg of CM03, twice weekly dose. • Group 4:15 mg/kg of CM03, twice weekly dose. • Group 5: saline only, twice weekly dose.
The xenograft data was analyzed using Student’s t test (GraphPad Inc.). Responses were considered to be significant for those with probabilities (p) less than 5% (p < 0.05). Mice were culled if there was any sign of tumor ulceration, if tumor volume exceeded 1.5 cm^3, or if a weight loss over 20% of initial body weight was observed. Samples of liver, kidney, and spleen from each animal in the CM03 (15 mg/kg) and untreated control groups were excised at the end of the therapy experiment, then fixed in 10% neutral buffered formalin for at least 48 h prior to processing and paraffin embedding. Tissue slices were stained with hematoxylin and eosin and assessed visually for any obvious differences compared with controls, indicative of toxicity and tissue damage. For the imaging study mice were anesthetized using isoflurane and imaged using the IVIS preclinical imaging system from PerkinElmer. Images were captured after 4 h following intravenous administration of CM03 using Cy5.5 excitation for 5 s.

[1] = 15 mg/kg IV twice weekly for 28 days

## O=C1c2ccc3c4c(c(NCCN5CCCC5)cc(c24)C(=O)N1CCCN1CCOCC1)C(=O)N(CCCN1CCOCC1)C3=O [CM03, 2,7-bis(3-morpholinopropyl)-4-((2-(pyrrolidin-1-yl)ethyl)amino)benzo[lmn][3,8]phenanthroline-1,3,6,8(2H,7H)-tetraone]
10 mg/kg IV twice weekly for 28 days
  MTV ± SEM (Day 62): 0.29 ± 0.10 cm^3
10 mg/kg, 4 h after IV administration
  IVIS imaging, accumulation in tumor xenograft: significant accumulation of CM03 in the tumor xenograft
[1]
  MTV ± SEM (Day 29): 0.04 ± 0.02 cm^3
  MTV ± SEM (Day 62): 0.09 ± 0.05 cm^3
15 mg/kg cohort
  animals with tumor volumes that shrank to <0.05 cm^3 by day 62: Five out of the eight
15 mg/kg cohort, any time during the study
  body weight and adverse effects: No body weight reduction
  tumor regrowth after dosing stopped: no tumor regrowth was observed
Animals sacrificed at the end of the experiments
  histopathological analysis of vital organs: no sign of organ damage

## Nc1ccn([C@@H]2O[C@H](CO)[C@@H](O)C2(F)F)c(=O)n1 [gemcitabine, reference compound]
[1]
  MTV ± SEM (Day 29): 0.05 ± 0.02 cm^3
  MTV ± SEM (Day 62): 0.23 ± 0.10 cm^3
  tumor regrowth after dosing stopped: tumor regrowth being apparent as soon as dosing was stopped
